19 compounds from patent US9187497B2, “Substituted pyrido[3,2-e]pyrrolo[1,2-a]pyrazines as inhibitors of poly(ADP-ribose)polymerase (PARP)” (Takeda Phamaceutical Company Limited, priority 2009, dated 2015) can be followed below.

SMILES strings stand for the structures. Where only a bound is given, the exact number is not on record here.

As a reminder, the melting point is the temperature of the solid-liquid transition. As a reminder, the IC50 is the concentration at which inhibition is half-maximal. A higher IC50 goes with weaker potency in that assay. One may read the Kd as the constant that tells how readily two partners part at equilibrium. Read a low Kd as tighter binding.

In one series the test system is Jurkat cell line. Description: PARP cellular chemopotentiation assay (MTS cell viability with and without TMZ). Type of series: cell-based. The conditions noted are these: ratio of EC50 for inhibition of cell viability without and with 100 μM TMZ; Jurkat cells, 96 hours of treatment. A digest of the protocol:
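Jurkat cells, 10,000/well, pre-cultured 24 h, then treated 96 h with serial compound dilutions (0.5% DMSO) with or without 100 μM TMZ. Viability by MTS conversion (OD490), normalized to DMSO controls; EC50 from curve fits, PF50 = EC50 without TMZ / EC50 with TMZ.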

The target in another series is T1, PARP (Homo sapiens, UniProt P09874).
T1 construct: purchased Trevigen 4684-096-01 (enzyme); kit 4684-096-K HT
T1 sequence (P09874 whole entry): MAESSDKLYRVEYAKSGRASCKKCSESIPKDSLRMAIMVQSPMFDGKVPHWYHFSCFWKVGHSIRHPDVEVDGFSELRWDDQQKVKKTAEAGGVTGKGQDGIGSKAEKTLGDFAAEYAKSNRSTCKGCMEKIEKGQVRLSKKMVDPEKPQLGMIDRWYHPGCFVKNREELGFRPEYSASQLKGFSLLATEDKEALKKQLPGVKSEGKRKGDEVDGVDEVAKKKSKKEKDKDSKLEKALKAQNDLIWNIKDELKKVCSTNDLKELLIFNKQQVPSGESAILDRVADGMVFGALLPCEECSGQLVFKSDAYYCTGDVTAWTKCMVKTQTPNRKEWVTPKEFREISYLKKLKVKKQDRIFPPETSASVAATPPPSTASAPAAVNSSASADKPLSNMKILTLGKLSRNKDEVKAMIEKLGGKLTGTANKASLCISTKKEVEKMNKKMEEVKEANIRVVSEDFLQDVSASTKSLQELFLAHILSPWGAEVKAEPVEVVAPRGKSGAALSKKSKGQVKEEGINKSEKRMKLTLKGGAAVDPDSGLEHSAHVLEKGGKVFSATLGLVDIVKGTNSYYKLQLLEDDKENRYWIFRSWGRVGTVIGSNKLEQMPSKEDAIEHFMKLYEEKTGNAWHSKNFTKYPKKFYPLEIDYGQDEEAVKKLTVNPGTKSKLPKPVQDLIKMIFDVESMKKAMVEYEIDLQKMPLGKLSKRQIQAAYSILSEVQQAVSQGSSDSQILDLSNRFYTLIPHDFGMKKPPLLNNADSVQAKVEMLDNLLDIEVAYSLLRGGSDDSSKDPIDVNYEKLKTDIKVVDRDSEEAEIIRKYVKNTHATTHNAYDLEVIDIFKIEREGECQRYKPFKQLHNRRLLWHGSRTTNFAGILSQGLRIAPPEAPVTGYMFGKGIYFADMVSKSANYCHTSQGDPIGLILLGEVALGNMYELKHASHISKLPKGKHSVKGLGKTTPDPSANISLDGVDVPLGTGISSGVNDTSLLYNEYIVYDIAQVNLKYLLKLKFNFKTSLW
Description: PARP ELISA colorimetric assay of inhibition of PARP catalytic activity (IC50). As to conditions: pIC50=-log(IC50), IC50 in molar concentration; ELISA-based PARP kit, 10 minutes of catalysis. Type of series: biochemical. A digest of the protocol:
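Human PARP was added as a 0.1 nM solution to histone-coated wells with compound for a 10-min ambient preincubation. The reaction was started with 100 μM NAD+ solution plus activated DNA and run 10 min. PAR formation was detected by anti-PAR ELISA, colorimetric. IC50 came from a 12-point, 3-fold gradient fitted by nonlinear least squares to a Hill equation.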
A general note: ELISA stands for enzyme-linked immunosorbent assay.

Series [1] concerns the target T2, catalytic domain of Human PARP (Homo sapiens, UniProt P09874).
T2 construct: The catalytic domain of Human PARP was cloned and prepared; made in house
Description: Biacore surface plasmon resonance affinity assay (dissociation constant KD). The conditions noted are these: pKD=-log(KD), KD in molar concentration; Biacore T100, 25° C. It is filed as binding. The procedure: Dissociation Constant (KD) from Surface Plasmon Resonance
The catalytic domain of Human PARP was cloned and prepared as described in Kinoshita, T.; Nakanishi, I.; Warizaya, M.; Iwashita, A.; Kido, Y.; Hattori, K. and Fujii, T. 2006 FEBS Letters 556, 43-46. Purified enzyme was stored at −80° C. in 25 mM Tris(hydroxymethyl)aminomethane (Tris) pH 7.4, 150 mM NaCl, 2 mM dithiothreitol (DTT) at a concentration of 6 mg/ml.
Biacore affinity assays for test compounds were conducted on a Biacore T100 (GE Healthcare) as follows. A Series S Sensor Chip CM5 (part number BR-1006-68, GE Healthcare) was activated for amide coupling with an Amine Coupling Kit (part number BR-1000-50, GE Healthcare) as described by the manufacturer. The mobile phase buffer consisted of Biacore buffer HBS-P (part number BR-1003-68, GE Healthcare) supplemented with 1% v/v dimethylsulfoxide (DMSO), 0.5 mM Tris(2-carboxyethyl)phosphine hydrochloride (TCEP), and 5 mM MgCl2. Enzyme samples (2 μl/6 mg/ml) stored at −80° C. were diluted to 0.080 mg/ml with 10 mM 4-morpholineethanesulfonic acid (MES) pH 6.5 and then mounted on the activated Biacore CM5 chip at a flow rate of 10 μl/min for 240 seconds. When successfully mounted, a signal of approximately 8,000 reflective units was observed. Test compounds were diluted 9 times 2-fold serially in mobile phase buffer (listed above) at 1% v/v DMSO final to generate a concentration gradient bracketing their anticipated KDs. Biacore mounted PARP was given a 1 minute exposure (association phase) to various concentrations of test compounds to observe a steady state equilibrium or an on rate. The exposure was followed with a dissociation phase of 5 minutes. The association and dissociation phases were at a flow rate of 50 μl/min and a temperature of 25° C.
Parameters Rmax (response at saturation) and KD (binding constant) were calculated through a nonlinear least squares fitting of the equation to the data by use of the Biacore T100 analysis software.
Parameter optimization was through a nonlinear least squares analysis of the association phase Response=Rmax*(1−exp(−(kon[cmpd]+koff)*t)) and dissociation phase Response=[…] by use of the Biacore T100 analysis software. The binding constant KD was calculated from the definition KD=koff/kon
Background: SPR reads the build-up and loss of mass on a sensor chip optically.

T2 sequence (P09874 788-1014 limits assumed): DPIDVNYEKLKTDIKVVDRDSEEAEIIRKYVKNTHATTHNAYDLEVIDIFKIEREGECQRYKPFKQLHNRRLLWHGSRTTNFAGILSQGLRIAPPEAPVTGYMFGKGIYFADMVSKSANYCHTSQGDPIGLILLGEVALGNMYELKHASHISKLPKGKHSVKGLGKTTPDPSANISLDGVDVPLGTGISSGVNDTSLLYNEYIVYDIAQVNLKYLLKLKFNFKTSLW

For `O=C1Nc2cc(CN3CCN(c4ccc(Cl)cc4)CC3)cnc2N2CCC[C@@H]12` [Compound 1, (S)-3-((4-(4-chlorophenyl)piperazin-1-yl)methyl)-6a,7,8,9-tetrahydropyrido[3,2-e]pyrrolo[1,2-a]pyrazin-6(5H)-one], the melting point is 265 to 268 °C. Moreover, the PF50 in the series on Jurkat cell line was more than 500.

With `N#Cc1ccc(N2CCN(Cc3cnc4c(c3)NC(=O)[C@@H]3CCCN43)CC2)cc1` [Compound 4, (S)-4-(4-((6-oxo-5,6,6a,7,8,9-hexahydropyrido[3,2-e]pyrrolo[1,2-a]pyrazin-3-yl)methyl)piperazin-1-yl)benzonitrile], the melting point was 252 °C. The PF50 in the series on Jurkat cell line is more than 2000. Moreover, the IC50 against PARP is 15.8 to 39.8 nM.

On to `O=C(NC1CC1)c1ccc(N2CCN(Cc3cnc4c(c3)NC(=O)[C@@H]3CCCN43)CC2)cc1` [Compound 13, (S)—N-cyclopropyl-4-(4-((6-oxo-5,6,6a,7,8,9-hexahydropyrido[3,2-e]pyrrolo[1,2-a]pyrazin-3-yl)methyl)piperazin-1-yl)benzamide], for which the melting point was 265 to 268 °C. Moreover, the PF50 in the series on Jurkat cell line is reported as more than 5000. In addition, the IC50 against PARP was 15.8 to 39.8 nM.

`N#Cc1ccc(N2CCN(Cc3cnc4c(c3)NC(=O)[C@@H]3CCCN43)CC2)c(F)c1` [Compound 14, (S)-3-fluoro-4-(4-((6-oxo-5,6,6a,7,8,9-hexahydropyrido[3,2-e]pyrrolo[1,2-a]pyrazin-3-yl)methyl)piperazin-1-yl)benzonitrile] displayed a melting point of 226 °C. Besides, the PF50 in the series with Jurkat cell line is more than 500.

For the compound `N#Cc1ccc(N2CCN(Cc3cnc4c(c3)NC(=O)[C@@H]3CCCN43)CC2)c(Cl)c1` [Compound 16, (S)-3-chloro-4-(4-((6-oxo-5,6,6a,7,8,9-hexahydropyrido[3,2-e]pyrrolo[1,2-a]pyrazin-3-yl)methyl)piperazin-1-yl)benzonitrile], the melting point fell in the range of 213 to 215 °C. Further, the PF50 in the series with Jurkat cell line is more than 500.

The compound `N#Cc1cc(F)c(N2CCN(Cc3cnc4c(c3)NC(=O)[C@@H]3CCCN43)CC2)cc1F` [Compound 17, (S)-2,5-difluoro-4-(4-((6-oxo-5,6,6a,7,8,9-hexahydropyrido[3,2-e]pyrrolo[1,2-a]pyrazin-3-yl)methyl)piperazin-1-yl)benzonitrile] yielded a melting point of 224 to 227 °C. For the same compound, the PF50 in the series on Jurkat cell line is more than 2000.

Regarding `N#Cc1ccc(N2CCN(Cc3cnc4c(c3)NC(=O)[C@@H]3CCCN43)CC2)cc1F` [Compound 21, (S)-2-fluoro-4-(4-((6-oxo-5,6,6a,7,8,9-hexahydropyrido[3,2-e]pyrrolo[1,2-a]pyrazin-3-yl)methyl)piperazin-1-yl)benzonitrile], the melting point lay in the range of 251 to 255 °C. In addition, in the series on Jurkat cell line, the PF50 is on record as more than 2000.

On to `N#Cc1ccc(N2CCN(Cc3cnc4c(c3)NC(=O)[C@@H]3CCCCN43)CC2)cc1` [Compound 71, (S)-4-(4-((6-oxo-6,6a,7,8,9,10-hexahydro-5H-dipyrido[1,2-a:3′,2′-e]pyrazin-3-yl)methyl)piperazin-1-yl)benzonitrile], for which the melting point is 212.2 °C. In the series on Jurkat cell line, the PF50 was more than 500. The compound also had an IC50 against PARP not above 12.6 nM.

In turn, `CCNC(=O)c1ccc(N2CCN(Cc3cnc4c(c3)NC(=O)[C@@H]3CCCCN43)CC2)cc1` [Compound 73, (S)—N-ethyl-4-(4-((6-oxo-6,6a,7,8,9,10-hexahydro-5H-dipyrido[1,2-a:3′,2′-e]pyrazin-3-yl)methyl)piperazin-1-yl)benzamide] displayed a melting point of 232.6 °C. Besides, in the series with Jurkat cell line, the PF50 was more than 2000. In addition, at PARP, the half-inhibitory concentration (IC50) is not above 12.6 nM.

With `O=C1CN(Cc2ccccc2)c2ncc(CN3CCN(c4ccc(Cl)cc4)CC3)cc2N1` [Compound 84, 4-benzyl-7-((4-(4-chlorophenyl)piperazin-1-yl)methyl)-3,4-dihydropyrido[2,3-b]pyrazin-2(1H)-one], the PF50 result with Jurkat cell line is “≧0”. In addition, the Kd in series [1] is 31.6 to 794 nM. At PARP, this compound had an IC50 not above 12.6 nM.

Take `O=C1CN(Cc2ccccc2)c2ncc(CN3CCC(c4ccc(Cl)cc4)CC3)cc2N1` [Compound 85, 4-benzyl-7-((4-(4-chlorophenyl)piperidin-1-yl)methyl)-3,4-dihydropyrido[2,3-b]pyrazin-2(1H)-one]: the PF50 entry in the series with Jurkat cell line is given as “≧0”. In series [1], this compound showed a Kd of 31.6 to 794 nM. For the same compound, the half-maximal inhibitory concentration (IC50) on PARP is 15.8 to 39.8 nM.

For the compound `O=C1Nc2cc(CN3CC=C(c4ccc(Cl)cc4)CC3)cnc2N2CCSCC12` (stereo not drawn) [Compound 86, 3-((4-(4-chlorophenyl)-5,6-dihydropyridin-1(2H)-yl)methyl)-6a,7,9,10-tetrahydropyrido[3,2-e][1,4]thiazino[4,3-a]pyrazin-6(5H)-one], in the series with Jurkat cell line, the PF50 was more than 500. Besides, in series [1], the dissociation constant Kd was less than 31.6 nM. Also, the IC50 at PARP was 15.8 to 39.8 nM.

With `O=C1Nc2cc(CN3CCC(c4ccc(Cl)cc4)CC3)cnc2N2CCSCC12` (stereo not drawn) [Compound 88, 3-((4-(4-chlorophenyl)piperidin-1-yl)methyl)-6a,7,9,10-tetrahydropyrido[3,2-e][1,4]thiazino[4,3-a]pyrazin-6(5H)-one], in the series on Jurkat cell line, the PF50 entry is “≧0”. In series [1], this compound showed a Kd of less than 31.6 nM. This compound also had a half-maximal inhibitory concentration (IC50) against PARP not above 12.6 nM.

Consider `CCNC(=O)c1ccc(N2CCN(Cc3cnc4c(c3)NC(=O)[C@@H]3CSCCN43)CC2)cc1` [Compound 92, (R)—N-ethyl-4-(4-((6-oxo-5,6,6a,7,9,10-hexahydropyrido[3,2-e][1,4]thiazino[4,3-a]pyrazin-3-yl)methyl)piperazin-1-yl)benzamide], for which the melting point was determined as 288.9 °C. In the series with Jurkat cell line, the PF50 is more than 5000.

With `CCOC(=O)c1ccc(N2CCN(Cc3cnc4c(c3)NC(=O)[C@@H]3CCCN43)CC2)cc1` [Compound 101, (S)-ethyl 4-(4-((6-oxo-5,6,6a,7,8,9-hexahydropyrido[3,2-e]pyrrolo[1,2-a]pyrazin-3-yl)methyl)piperazin-1-yl)benzoate], the melting point was 242 °C. Further, in the series on Jurkat cell line, the PF50 is recorded as more than 10. Moreover, the IC50 against PARP was not below 50.1 nM.

The compound `O=C1Nc2cc(CN3CCN(c4ccc(C(=O)N5CCCC5)cc4)CC3)cnc2N2CCC[C@@H]12` [Compound 138, (S)-3-((4-(4-(pyrrolidine-1-carbonyl)phenyl)piperazin-1-yl)methyl)-6a,7,8,9-tetrahydropyrido[3,2-e]pyrrolo[1,2-a]pyrazin-6(5H)-one] had a melting point of 121.3 °C. The PF50 result with Jurkat cell line is recorded as “≧0”. The IC50 against PARP is not below 50.1 nM.

`CN(C)C(=O)c1ccc(N2CCN(Cc3cnc4c(c3)NC(=O)[C@@H]3CCCN43)CC2)cc1` [Compound 139, (S)—N,N-dimethyl-4-(4-((6-oxo-5,6,6a,7,8,9-hexahydropyrido[3,2-e]pyrrolo[1,2-a]pyrazin-3-yl)methyl)piperazin-1-yl)benzamide] had a melting point of 99.2 °C. Moreover, in the series on Jurkat cell line, the PF50 result was “≧0”. The compound also showed an IC50 at PARP not below 50.1 nM.

Take `CCN(C)C(=O)c1ccc(N2CCN(Cc3cnc4c(c3)NC(=O)[C@@H]3CCCN43)CC2)cc1` [Compound 140, (S)—N-ethyl-N-methyl-4-(4-((6-oxo-5,6,6a,7,8,9-hexahydropyrido[3,2-e]pyrrolo[1,2-a]pyrazin-3-yl)methyl)piperazin-1-yl)benzamide]: the melting point was 91.9 °C. Moreover, the PF50 result with Jurkat cell line is on record as “≧0”. This compound gave an IC50 against PARP not below 50.1 nM.

As for `Cc1cc(C(=O)NC2CC2)ccc1N1CCN(Cc2cnc3c(c2)NC(=O)[C@@H]2CCCN32)CC1` [Compound 142, (S)—N-cyclopropyl-3-methyl-4-(4-((6-oxo-5,6,6a,7,8,9-hexahydropyrido[3,2-e]pyrrolo[1,2-a]pyrazin-3-yl)methyl)piperazin-1-yl)benzamide], the melting point was in the range of 226.7 to 233.5 °C. The PF50 in the series with Jurkat cell line is reported as more than 2000. Further, the IC50 against PARP was not above 12.6 nM.
